{
  "source": "patent US20030108980A1",
  "about": "“Bioluminescent methods for direct visual detection of environmental compounds” (priority 2000, published 2003)",
  "key": {"E. coli ARL1": {"test_system": "E. coli ARL1", "assay": "Detection of mercury using bioluminescence, strain ARL1", "type": "cell-based", "conditions": "500 μg HgCl2/L", "experimental": "(§1) Strains ARL1, ARL2, and ARL3 were screened for bioluminescence production in the presence of HgCl2. Each strain was grown in LB medium to an OD546nm of 0.35 at which time 500 μg HgCl2/L was added. Induction of bioluminescence in the presence of mercury was rapid (FIG. 5) with significant light produced in 30 minutes. Strain ARL2 had higher background bioluminescence (˜31,486 cps) in the absence of mercury relative to strain ARL1 and ARL3 (˜13,798 and ˜12,762 respectively). After 20 minutes, strain ARL2 produced approximately twice the amount of bioluminescence ((˜1,791,560 cps) relative to strains ARL1 and ARL3 (˜917.496 and 825,240 cps respectively)."}, "E. coli ARL2": {"test_system": "E. coli ARL2", "assay": "Detection of mercury using bioluminescence, strain ARL2", "type": "cell-based", "conditions": "500 μg HgCl2/L", "experimental": "as §1"}, "E. coli ARL3": {"test_system": "E. coli ARL3", "assay": "Detection of mercury using bioluminescence, strain ARL3", "type": "cell-based", "conditions": "500 μg HgCl2/L", "experimental": "as §1"}, "P. fluorescens 5RL [1]": {"test_system": "P. fluorescens 5RL", "assay": "Prototype test strip, naphthalene/salicylate bioreporter", "type": "cell-based", "conditions": "5 ppm naphthalene in mixture with 1 ppm Hg2+ and 10 ppm toluene", "description": "(§2) 1. The bottom layer is absorbent Whatman filter paper.\n(§3) 2. The second layer is an impermeable water barrier. Currently we are using aluminum foil.\n(§4) 4. The fourth layer is the styrene sheet. […] There is one circle for each bioreporter.\n(§5) 5. The last layer is the encapsulated cells.\n(§6) Water will be wicked up the filter paper."}, "[2]": {"test_system": "P. fluorescens 5RL (pUTK21)", "conditions": "cited from earlier work"}, "P. putida TVA8 [3]": {"test_system": "P. putida TVA8", "assay": "Prototype test strip, toluene bioreporter", "type": "cell-based", "conditions": "10 ppm toluene in mixture", "description": "as §2, §3, §4, §5, §6\n[…]. […] […]."}, "P. putida TVA8 [4]": {"test_system": "P. putida TVA8", "conditions": "cited from earlier work"}, "P. fluorescens 5RL [5]": {"test_system": "P. fluorescens 5RL", "conditions": "salicylate 10 and 100 ppm, cellulose filter strips, room temperature", "procedure": "Strips were removed and excess fluid was drained. These filter strips with cells were placed on a second set of strips impregnated with salicylic acid (10 and 100 ppm).\nBriefly, a 100 μl sample of an uninduced culture of Pseudomonas fluorescens 5RL was placed in a sterile petri dish containing LB broth (10 ml) supplemented with tetracycline (14 μg/mI)."}, "E. coli EC100": {"test_system": "E. coli EC100", "conditions": "cellulose strips"}},
  "data": [
    {"smiles": "[Cl][Hg][Cl]", "note": "[HgCl2]", "values": [
      {"measurement": "time to significant light production", "setting": "E. coli ARL1", "result": 30, "unit": "min"},
      {"measurement": "time to significant light production", "setting": "E. coli ARL2", "result": 30, "unit": "min"},
      {"measurement": "bioluminescence after 20 minutes", "setting": "E. coli ARL2; LB medium, OD546nm 0.35", "result": "~1,791,560 cps"},
      {"measurement": "time to significant light production", "setting": "E. coli ARL3", "result": 30, "unit": "min"},
      {"measurement": "bioluminescence after 20 minutes", "setting": "E. coli ARL3; LB medium, OD546nm 0.35", "result": "~825,240 cps"}
    ]},
    {"smiles": "c1ccc2ccccc2c1", "note": "[Naphthalene]", "values": [
      {"measurement": "visibility of bioluminescence on test strip", "setting": "P. fluorescens 5RL [1]", "result": "visible to the naked eye"},
      {"measurement": "Lower Detection Limits", "setting": "[2]", "result": "˜50 ppb"},
      {"measurement": "Response Time", "setting": "[2]", "result": "˜1 hour"}
    ]},
    {"smiles": "Cc1ccccc1", "note": "[Toluene]", "values": [
      {"measurement": "visibility of bioluminescence on test strip", "setting": "P. putida TVA8 [3]", "result": "only detectable with a photomultiplier"},
      {"measurement": "Response Time", "setting": "P. putida TVA8 [4]", "result": 25, "unit": "ppm"}
    ]},
    {"smiles": "O=C([O-])c1ccccc1O.[Na+]", "note": "[salicylate, sodium salicylate]", "values": [
      {"measurement": "time to light visible to the naked eye", "setting": "P. fluorescens 5RL [5]", "result": "less than 60 min"},
      {"measurement": "time to visible light after contact of test strips with inducer solution", "setting": "E. coli EC100", "result": "less than one hour"}
    ]}
  ]
}
